# Assay results reported in PMC7156724, “Potent BRD4 inhibitor suppresses cancer cell-macrophage interaction” (Nature Communications, 2020).
# Several values for one entry are separate records, joined by “and”; a condition that tells them apart may be missing. Equal entries are not always repeated.
# Tests used:
# B16F10 mouse melanoma = B16F10 mouse melanoma syngeneic model tumor growth; format: in vivo, C57BL/6 mice; settings: B16F10 mouse melanoma, once daily 11 days, NHWD-870-HCl
# Description: PO, oral administration; QD, once daily; BID, twice daily. b–d Tumor growth curves for A2780 ovarian tumor (n = 5) (b), TMD8 large B cell lymphoma (n = 6) (c), and B16F10 melanoma (n = 5) (d) bearing mice treated with the indicated compounds once daily for 11-21 days. e, f Tumor growth curves for A375 melanoma (n = 6) (e), and patient-derived xenograft (PDX) of melanoma (n = 5) (f) bearing mice treated with the indicated compounds once daily (5 days on, 2 days off) for 21 days. For d–f, NHWD-870 used is NHWD-870-HCl synthesized using Suzuki coupling route. Data are presented as mean ± SEM in (a, b, d, f) and mean + SEM in (c, e). p values were calculated using two-tailed, unpaired t tests. *p < 0.05; **p < 0.01; ***p < 0.001. Source data are provided as a Source Data file.
# 4–6 weeks old female BALB/c nude mice were used for most experiments, with the exception of 6–8 weeks old female C57BL/6 mice were used for B16F10 experiments, and 6–8 weeks old male BALB/c nude mice and SD rats were used for pharmacokinetic experiments. All animals were purchased from Shanghai SIPPR-Bk Lab Animal Co., Ltd. All animals were housed under a regimen of 12 h light/12 h dark cycles and specific pathogen-free conditions. 5×10^6 NCI-H526, ES-2, MDA-MB231, A2780, A375, B16F10, and TMD-8 cells (0.1 ml) were injected subcutaneously into female nude mice. The melanoma patient-derived xenograft model was derived from a human melanoma sample (BRAF, NARS and NF1 wild type, and p53 mutant) removed from a patient in Xiangya Hospital. Surgically removed tumor fragments were implanted subcutaneously into female NSG mice. When the tumors grew to ~1000 mm^3, they were harvested and cryopreserved or immediately re-implanted for expansion or experiments. Mouse body weight and tumor sizes were measured every 3 days. Once the tumors grew to 150–200 mm^3, mice were treated with the compounds as described in the Figures. 1 × 10^6 A2780 cells (1 ml) were injected into the abdominal cavity of nude mice. Ascitic volume and tumor weight were measured by an electronic balance. All the procedures were evaluated and approved by the Institutional Animal Care and Use Committee of Central South University and Yale University.
# [1] = tested on: TAMs (CD68+ cells) in H526 tumors; test: Immunofluorescent staining of CD68 (TAMs) in subcutaneous H526 tumors; format: in vivo, mouse; settings: subcutaneous H526 tumors from Fig. 3a, individual tumors
# Description: Shown are immunofluorescent staining of CD68 (macrophage marker, red) and E-Cadherin (cancer cells, green) (a) and quantification of CD68 positive cells (b) in vehicle, NHWD-870 treated H526 (n = 6) and A2780 (n = 5) tumors from Fig. 3a, b, respectively. Scale bar is 100 μm. […] Shown are representative immunofluorescent staining of Ki67 and CD68 (c) and quantification of percentage of Ki67+ cells in CD68+ cells (d). Scale bar is 30 μm. Data are presented as mean ± SEM of five different tumors. e Schematics of the animal experiments using an orthotopic mouse OC model, established by intraperitoneally injecting human A2780 cells into female recipient nude mice. […] Shown are representative immunofluorescent staining of Ki67 and CD68 (h) and quantification of Ki67^+CD68^− (i) or Ki67^+CD68^+ (j), or CD68^+ cells (k). […] Data are presented as mean ± SEM from five different mice. p values were calculated using two-tailed, unpaired t tests in this figure. *p < 0.05; **p < 0.01; ***p < 0.001. […]
# Immunofluorescence staining of tumor sections was performed according to the manufacturer’s instructions. Slides were imaged using a Zeiss Axiovert 200 fluorescence microscope (Carl Zeiss MicroImaging; Thornwood, NY), and images were captured using Openlab3 software (Imprecision, Lexington, MA). Cleaved caspase 3, Ki67, CSF1, and CD68 positive cells were counted with ImageJ version 1.52s[58].
# CSF1 protein = test: ELISA of CSF1 protein in supernatant of human tumor cells (A2780, SKOV3, A375); format: cell-based; settings: 10^6 A375 cells, 25 nM, 24 h
# Description: A2780 tumor cells were pretreated with 100 nM NHWD-870 and then directly co-cultured with TAMs (A2780:TAMs ratio as 4:1) at the density of 1 × 10^5 total cells in a 12-well. Shown are immunofluorescent staining of Ki67 and CD68 (a) and quantification of Ki67+ and CD68− or CD68+ cells (b). Scale bar is 50 μm. […] A2780 cells (pre-treated with or without 100 nM NHWD-870 for 48 h) were seeded into the top chamber (transwell size: 0.4 μm) and TAMs (Mac, 40,000 cells per 24-well) in medium containing 2% matrigel were seeded into the bottom chamber pre-coated with Matrigel. No NHWD-870 was added to the co-culture. The upper chamber without A2780 cells was used as a control. Shown are schematics of transwell co-culture experiment (c), representative pictures of TAM spheroid (d: black/white), and quantification of spheroid volumes (e). Scale bar is 50 μm. […] Data are presented as mean ± SEM from three independent experiments. g CSF1 protein levels in supernatant of 10^6 ID8, B16, A2780, SKOV3, and A375 cells treated with DMSO or 25 nM NHWD-870 for 24 h, as measured by ELISA. […] Scale bar is 20 μm. i Quantification of CSF1 staining in DMSO or 100 nM NHWD-870 treated A2780 cells. […] Shown are representative immunofluorescent staining of CSF1 (green) and CD68 (red) (j) and quantification of CSF1 staining (k). […]
smiles,measurement,setting,value
Cc1nnn(C)c1-c1cnc2c3c4cnn(C)c4ccc3n([C@H](c3ccccc3)C3CCOCC3)c2c1 [NHWD-870],effect on tumor growth,B16F10 mouse melanoma,very strong tumor inhibitive effects
same,quantification of CD68 positive cells,[1],0.3 and 1.5 and 0.1 and 0.7 and 0.5 and 1.1
same,CSF1 protein levels in supernatant (ELISA),CSF1 protein,26 and 36 and 31
